3 compounds from US20220089631A1, “COMPOUND COMPRISING MULTIVALENT SIALYLOLIGO[…], AND COMPOSITION FOR PREVENTING OR TREATING VIRAL INFECTION DISEASES, CONTAINING SAME AS ACTIVE INGREDIENT” (priority 2018, published 2022) can be followed below.

Format in all cases: cell-based, influenza virus
The subject of test [1] is Influenza Type A H1N1 (PR8).
The subject of test [2] is Influenza Type A H3N2 (swine).
For test [3], the system named is Influenza Type A H9N2 (avian).
Test [4] relates to Influenza Type B.

Molecules are shown by their SMILES.

`CC(=O)NC1C(O)CC(OCC2CC(O)C(O)C(OC3C(CO)OC(OCCCCCCNC(=O)CCC(=O)OC4OC(COC(=O)CCC(=O)NCCCCCCOC5OC(O)C(OC6OC(COC7(C(=O)O)CC(O)C(NC(C)=O)C([C@@H](O)[C@H](O)CO)O7)CC(O)C6O)C(O)C5O)C(OC(=O)CCC(=O)NCCCCCCOC5OC(CO)C(OC6OC(COC7(C(=O)O)CC(O)C(NC(C)=O)C(C(O)[C@H](O)CO)O7)CC(O)C6O)C(O)C5O)C4OC(=O)CCC(=O)NCCCCCCOC4OC(CO)C(OC5OC(COC6(C(=O)O)CC(O)C(NC(C)=O)C([C@@H](O)[C@H](O)CO)O6)C(O)C(O)C5O)C(O)C4O)C(O)C3O)O2)(C(=O)O)OC1C(O)[C@H](O)CO` (stereo partly drawn) [Compound 4]: the Hemagglutination inhibition concentration in test [1] is recorded as 0.45 mM; in test [2] it was 0.85 mM; in test [3] it was 2.0 mM; in test [4], 0.15 mM.

On to `CC(=O)N[C@H]1[C@H]([C@H](O)[C@H](O)CO)O[C@@](O[C@H]2[C@@H](O)[C@@H](CO)O[C@@H](O[C@H]3[C@H](O)[C@@H](O)C(O)O[C@@H]3CO)[C@@H]2O)(C(=O)O)C[C@@H]1O` (stereo partly drawn) [compound 1, 3′-sialyl lactose], for which the Hemagglutination inhibition concentration in test [1] is 25 mM; in test [2] it was 20 mM; in test [3], 18 mM; in test [4], 10 mM.

With `CC(=O)N[C@H]1[C@H]([C@H](O)[C@H](O)CO)O[C@@](OC[C@H]2O[C@@H](O[C@H]3[C@H](O)[C@@H](O)[C@H](O)O[C@@H]3CO)[C@H](O)[C@@H](O)[C@H]2O)(C(=O)O)C[C@@H]1O` [compound 2, 6′-sialyl lactose], the Hemagglutination inhibition concentration is reported as 12.5 mM in test [1], 4.5 mM in test [2], more than 100 mM in test [3] and 4.5 mM in test [4].
